In patent publication US11773140B2, “Gram-negative lysin-antimicrobial peptide (AMP) polypeptide constructs, lysins, isolated polynucleotides encoding same and uses thereof in human serum” (priority 2018, dated 2023):
Read-outs that look alike come from different tables or passages of the source.

What was measured:
Assay type in all cases: cell-based, Pseudomonas aeruginosa
[1] = system: carbapenem-resistant P. aeruginosa isolate PA19
Method: (§1) Such resensitization may be determined by combining the present lysins or lysin-AMP polypeptide constructs with an antibiotic in a checkerboard assay as described herein. Antibiotic-resistant bacteria, such as carbapenem-resistant P. aeruginosa, are added to the lysin or lysin-AMP polypeptide construct combination. […] See Clinical and Laboratory Standards Institute (CLSI), CLSI. […] M100 Performance Standards for Antimicrobial Susceptibility Testing; 29th Edition. Clinical and Laboratory Standards Institute, Wayne, Pa.
(§2) Up to seven carbapenem-resistant isolates were assessed. […] See Clinical and Laboratory Standards Institute (CLSI), CLSI. […] M100 Performance Standards for Antimicrobial Susceptibility Testing; 29th Edition. Clinical and Laboratory Standards Institute, Wayne, Pa.

[2] = system: carbapenem-resistant P. aeruginosa isolate PA20
Method: as §1, §2

[3] = system: carbapenem-resistant P. aeruginosa isolate PA21
Method: as §1, §2

[4] = system: carbapenem-resistant P. aeruginosa isolate PA22
Method: as §1, §2

[5] = system: carbapenem-resistant P. aeruginosa isolate PA23
Method: as §1, §2

[6] = system: carbapenem-resistant P. aeruginosa isolate PA24
Method: as §1, §2

[7] = system: carbapenem-resistant isolate WC-452
Method: as §1, §2

Structure (SMILES)	carbapenem susceptibility category, Alone [1]	carbapenem MIC, Combination ([1]; in combination with GN121)	carbapenem MIC, Combination ([1]; in combination with GN123)	carbapenem susceptibility category, Combination ([1]; in combination with GN123)	carbapenem susceptibility category, Alone [2]	carbapenem MIC, Combination ([2]; in combination with GN121)	carbapenem MIC, Combination ([2]; in combination with GN123)	carbapenem susceptibility category, Combination ([2]; in combination with GN123)	carbapenem susceptibility category, Alone [3]	carbapenem MIC, Combination ([3]; in combination with GN121)	carbapenem MIC, Combination ([3]; in combination with GN123)	carbapenem susceptibility category, Combination ([3]; in combination with GN123)	carbapenem susceptibility category, Alone [4]	carbapenem MIC, Combination ([4]; in combination with GN121)	carbapenem MIC, Combination ([4]; in combination with GN123)	carbapenem susceptibility category, Combination ([4]; in combination with GN123)	carbapenem susceptibility category, Alone [5]	carbapenem MIC, Combination ([5]; in combination with GN123)	carbapenem susceptibility category, Combination ([5]; in combination with GN123)	carbapenem susceptibility category, Alone [6]	other results
C[C@@H](O)[C@H]1C(=O)N2C(C(=O)O)=C(S[C@@H]3CN[C@H](C(=O)N(C)C)C3)[C@H](C)[C@H]12 [MEROPENEM, meropenem]	R ((R) = resistant)	1 µg/mL	0.5 µg/mL	S ((S) = sensitive)	R ((R) = resistant)	1 µg/mL	0.5 µg/mL	S ((S) = sensitive)	R ((R) = resistant)	2 µg/mL	1 µg/mL	S ((S) = sensitive)	R ((R) = resistant)	1 µg/mL	1 µg/mL	S ((S) = sensitive)	R ((R) = resistant)	0.5 µg/mL	S ((S) = sensitive)	R ((R) = resistant)	carbapenem MIC, Combination ([5]; in combination with GN121): 2 µg/mL; carbapenem MIC, Combination ([6]; in combination with GN121): 1 µg/mL; carbapenem MIC, Combination ([6]; in combination with GN123): 2 µg/mL; carbapenem susceptibility category, Combination ([6]; in combination with GN123): S ((S) = sensitive); carbapenem susceptibility category, Alone [7]: R ((R) = resistant); carbapenem MIC, Combination ([7]; in combination with GN121): 1 µg/mL; carbapenem MIC, Combination ([7]; in combination with GN123): 1 µg/mL; carbapenem susceptibility category, Combination ([7]; in combination with GN123): S ((S) = sensitive)
C[C@@H](O)[C@H]1C(=O)N2C(C(=O)O)=C(SCCN=CN)C[C@H]12 [imipenem]	R ((R) = resistant)	1 µg/mL	0.5 µg/mL	S ((S) = sensitive)	R ((R) = resistant)	0.5 µg/mL	1 µg/mL	S ((S) = sensitive)	R ((R) = resistant)	1 µg/mL	0.5 µg/mL	S ((S) = sensitive)	R ((R) = resistant)	2 µg/mL	2 µg/mL	S ((S) = sensitive)	R ((R) = resistant)	0.25 µg/mL	S ((S) = sensitive)	R ((R) = resistant)	carbapenem susceptibility category, Combination ([1]; in combination with GN121): S ((S) = sensitive); carbapenem susceptibility category, Combination ([2]; in combination with GN121): S ((S) = sensitive); carbapenem susceptibility category, Combination ([3]; in combination with GN121): S ((S) = sensitive); carbapenem susceptibility category, Combination ([4]; in combination with GN121): S ((S) = sensitive); MIC, Alone ([5]; agent alone (carbapenem or lysin)): 16 µg/mL; carbapenem susceptibility category, Combination ([5]; in combination with GN121): S ((S) = sensitive); carbapenem MIC, Combination ([6]; in combination with GN121): 1 µg/mL; carbapenem susceptibility category, Combination ([6]; in combination with GN121): S ((S) = sensitive); carbapenem MIC, Combination ([6]; in combination with GN123): 2 µg/mL; carbapenem susceptibility category, Combination ([6]; in combination with GN123): S ((S) = sensitive); carbapenem susceptibility category, Alone [7]: R ((R) = resistant); carbapenem MIC, Combination ([7]; in combination with GN123): 1 µg/mL; carbapenem susceptibility category, Combination ([7]; in combination with GN123): S ((S) = sensitive)
